In US6894075B2, “4′-demethyl-4′-O-substituted-1-deoxypodophyllotoxin derivative and geometric isomer thereof, process for the preparation thereof and anti-cancer composition comprising the same” (priority 2000, dated 2005):

Columns and labels:
[1] = test system: A549 cell; assay: Cytotoxicity test (SRB method) for A549 cells; format: cell-based, human; conditions: for cytotoxicity compared with DPT: A549, in words; for EC50: A549 human lung cancer cell, SRB, read-out: ED50(nM) for A549; for EC50 / ED50(mg/mL) for A549: 48 hours incubation; for ED50(mg/mL) for A549: A549, SRB, Table 2
Description: (§1) Human lung carcinomas A549 and […] were used for determining cytotoxicity of the compounds of the present invention according to the Sulfrhodamine-B (SRB) method which was developed by NCI in 1989 in order to determine in vitro anticancer activity of drugs.
(§2) Cells to be used in the experiment were separated from a surface using 0.5% Trypsin-EDTA solution and suspended in a density of 5×10^4 cell/ml therein. The cell suspension was introduced into a 96-well plate in an amount of 180/well and incubated for 24 hours in a 5% CO2 incubator of 37° C. Samples were dissolved in dimethylsulfoxide and then diluted by water distilled in advance for three times just before the experiment. Forty-one (41) samples were prepared into 4 types of final concentrations, i.e., 0.1, 0.03, 0.01 and 0.003 mg per ml of the medium. The diluted sample solutions were added to the 96-well plate in the amount of 20 μl/well and incubated for 48 hours in a CO2 incubator of 37° C. At the time of adding the samples, Tz (Time zero) plate was taken. The medium was removed from the Tz plate and each of the plates after incubation were completed. Ten (10)% […] (TCA) was added in the amount of […], and allowed to stand for 1 hour at 4° C. to fix the cells on the bottom surface of the plate. After the cells were fixed, the plate was washed five to six times with water to completely remove the remaining TCA solution and then dried at room temperature to completely remove the moisture. To the fully dried plate was introduced a dye solution in the amount of […] in which 0.4% SRB was dissolved in 1% acetic acid solution. […] After the dyeing process, the plate was dried again at room temperature. 100 ml of 10 mM Tris solution was added thereto in order to dissolve the dye, and then O.D. (optical density) was determined by microplate reader at 520 nm.
(§3) ED50 values for cancer cells were calculated as follows. The amount of SRB protein was analyzed at the time when incubation started by the addition of the sample. This amount was named time zero (Tz). The O.D. value obtained from a group which was not treated by the sample was named Control group (C) and the O.D. value obtained from a group which was treated by the sample was named Test group (T).
(§4) The degree of cytotoxicity of the compounds was calculated from Tz, C and T values according to the following equation.
(§5) That is, in the case of Tz≧T, the degree was calculated by
(§6) (T−Tz)/(C−Tz)×100(%), and
(§7) • in the case of Tz<T, the degree was calculated by […].
(§8) From the values thus obtained, ED50 value which is defined as the concentration at which growth of the cancer cell is inhibited by 50% was calculated using the regression function of Excel program.

[2] = test system: Lewis Lung Cancer Cell (LLC); assay: Anti-cancer test for BDF1 mouse transplanted by Lewis Lung Cancer Cell, Experiment 2-1 (formulae 1a, 1b); format: in vivo; conditions: peritoneal injection 0.06 mmole/kg/day at days 1, 2, 4, 7, 8 (etoposide 36 mg/kg), cancer volume at 14 to 16 days
Description: In order to evaluate the anti-cancer activity of the compounds of the present invention, LLC, which is a lung cancer cell of mouse, was transplanted into the hypodermic region of BDF1 mouse to induce a solid cancer. […] Experiment for the compounds of formulae (1a) and (1b) and that for the compound of formula (1c) were separately carried out.
Male BDF1 mouse (Weight 18 to 25 g), being in good health and purchased from Korea Biolink Co., was used as a test animal.
The mice were bred at a place controlled to the temperature of 23 to 24° C. while provided with water and feed ad libitum. As the feed, feed for mouse containing no antibiotics was used. The hypodermic tissue of C57BL/6 mouse, which includes cells cultured therein for 14 days, was taken up. Sterilized cold physiological saline was added to the tissue in the amount of 5 ml/g tissue to make a cell suspension. This cell suspension of 0.2 ml was transplanted into the hypodermic region of armpit of BDF1 mouse.
(§9) Each group includes 5 mice. After 24 hours from the transplantation, each test compound of formulae (1a) and (1b) was dissolved in 4% Tween 80 and injected peritoneally in the amount of 0.2 ml and in a concentration of 0.06 mmole/kg/day (that is, 0.06 mmole of each test compound was dissolved in 10 ml of 4% Tween 80, and then 0.2 ml of the resulting solution was peritoneally injected into a mouse). Only 4% Tween 80 was injected for the negative control group, and the same moles of etoposide (36 mg/kg) was injected for the positive control group. The injection was performed five times at 1, 2, 4, 7 and 8 days from the transplantation of cancer.
The anti-cancer effect was determined by measuring the volume of cancer of the control and test groups at 14 to 16 days from the administration of drugs and then calculated as follows. Volume of Cancer(mm^3)=Length(mm)×Width^2(mm^2)/2 Suppression Rate of Cancer Growth(%)=(C−T)×100(%)/C in which • C represents the average volume of cancer (mm^3) of the control group, and • T represents the average volume of cancer (mm^3) of the test group.

[3] = Weight change in the period of drug administration; format: in vivo, mouse; conditions: for Weight of mouse, Day 1: Day 1 from the cancer cell transplantation; for Weight of mouse, Day 2: Day 2 from the cancer cell transplantation; for Weight of mouse, Day 3: Day 3 from the cancer cell transplantation; for Weight of mouse, Day 4: Day 4 from the cancer cell transplantation; for Weight of mouse, Day 5: Day 5 from the cancer cell transplantation; for Weight of mouse, Day 6: Day 6 from the cancer cell transplantation; for Weight of mouse, Day 7: Day 7 from the cancer cell transplantation; for Weight of mouse, Day 8: Day 8 from the cancer cell transplantation
Protocol: as §9
As an index of toxicity, the weight change during the period of drug administration was recorded for the compounds of formulae (1a) and (1b) compared with the comparison compound of Etoposide.

[4] = test system: SK-MEL-2 cell; assay: Cytotoxicity test (SRB method) for SK-MEL-2 cells; format: cell-based, human; conditions: SK-MEL-2, SRB, 48 hours incubation
Description: as §1, §2, §3, §4, §5, §6, §7, §8

Row | SMILES | cytotoxicity compared with DPT [1] | EC50 [1] [nM] | Suppression Rate for LLC [2] [%] | Weight of mouse, Day 1 [3] [g] | Weight of mouse, Day 2 [3] [g] | Weight of mouse, Day 3 [3] [g] | Weight of mouse, Day 4 [3] [g] | Weight of mouse, Day 5 [3] [g] | Weight of mouse, Day 6 [3] [g] | Weight of mouse, Day 7 [3] [g] | Weight of mouse, Day 8 [3] [g] | ED50(mg/mL) for A549 [1] [mg/mL] | ED50(mg/mL) for SK-MEL-2 [4] [mg/mL]
1 | COc1cc(C2c3cc4c(cc3CC3COC(=O)C32)OCO4)cc(OC)c1OC(=O)C(N)CC(C)C (stereo not shown) [Compound 1a-2, 4′-demethyl-4′-O-leucinoyl-1-deoxypodophyllotoxin] | stronger cytotoxicity than DPT | 68 | 88 | 23.3 | 24.3 | 25 | 26.1 | 26 | 25 | 25.3 | 26.1 | – | –
2 | COc1cc(C2c3cc4c(cc3CC3COC(=O)C32)OCO4)cc(OC)c1OC(=O)CCN (stereo not shown) [Compound 1a-10, 4′-demethyl-4′-O-(3-aminopropanoyl)-1-deoxypodophyllotoxin] | – | 96.7 | 78 | 22.9 | 24.1 | 25 | 25.1 | 25.5 | 25.3 | 25 | 25.3 | – | –
3 | COc1cc(C2c3cc4c(cc3CC3COC(=O)C32)OCO4)cc(OC)c1OC(=O)NCCO (stereo not shown) [Compound 1b-5, 4′-demethyl-4′-O-(2-hydroxyethyl)carbamoyl-1-deoxypodophyllotoxin] | stronger cytotoxicity than DPT | 61.5 | 95.1 | 23.4 | 23.8 | 22.2 | 23.8 | 23.4 | 23.8 | 23 | 23.2 | – | –
4 | COc1cc(C2c3cc4c(cc3CC3COC(=O)C32)OCO4)cc(OC)c1OC(=O)CCCCCCCN (stereo not shown) [Compound 1a-15, 4′-demethyl-4′-O-(8-aminooctanoyl)-1-deoxypodophyllotoxin] | – | 74.2 | 34.5 | – | – | – | – | – | – | – | – | – | –
5 | COc1cc(C2c3cc4c(cc3CC3COC(=O)C32)OCO4)cc(OC)c1OC(=O)CCCCN (stereo not shown) [Compound 1a-12, 4′-demethyl-4′-O-(5-aminopentanoyl)-1-deoxypodophyllotoxin] | – | 90.3 | 82 | 22.8 | 24.2 | 25 | 25.4 | 24.8 | 26 | 25.8 | 26.2 | – | –
6 | CCCCCCCCCC(=O)Oc1c(OC)cc(C2c3cc4c(cc3CC3COC(=O)C32)OCO4)cc1OC (stereo not shown) [Compound 1c-9, 4′-demethyl-4′-O-decanoyl-1-deoxypodophyllotoxin] | – | – | – | – | – | – | – | – | – | – | – | 0.027 | 0.004
7 | CCCCCCC(=O)Oc1c(OC)cc(C2c3cc4c(cc3CC3COC(=O)C32)OCO4)cc1OC (stereo not shown) [Compound 1c-7, 4′-demethyl-4′-O-heptanoyl-1-deoxypodophyllotoxin] | – | – | – | – | – | – | – | – | – | – | – | 0.013 | 0.078
8 | CCCCCCCC/C=C\CCCCCCCCCC(=O)Oc1c(OC)cc(C2c3cc4c(cc3CC3COC(=O)C32)OCO4)cc1OC (stereo not drawn) [Compound 1c-25, 4′-demethyl-4′-O-(cis-11′-eicosenoyl)-1-deoxypodophyllotoxin] | – | – | – | – | – | – | – | – | – | – | – | >5 | >5
9 | COc1cc(C2c3cc4c(cc3CC3COC(=O)C32)OCO4)cc(OC)c1OC(=O)CCCCCCCCCCCCCCC(=O)O (stereo not shown) [Compound 1c-38, 4′-demethyl-4′-O-(15′-carboxy-pentadecanoyl)-1-deoxypodophyllotoxin] | – | – | – | – | – | – | – | – | – | – | – | 0.106 | 0.027
